Source: patent publication US9999760B2, “DVDMS sensitizer for cancer sonodynamic therapy” (priority 2015, dated 2018)

Tests used:
[1] = test system: cancerous and normal cells; assay: Autofluorescence intensity and singlet oxygen production in cells; format: cell-based; conditions: compared with other photosensitizers / Photofrin
brain stem tumor = assay: Clinical cases of SDT for tumors of the brain stem; format: in vivo, patient
Experimental: Below are two typical clinical cases where SDT was selected for treatment of tumors of the brain stem. For Photofrin™ the dosage was 2 mg/kg of body weight. For DVDMS, the dosage was 0.2 mg/kg of body weight, a factor of ten less than Photofrin™. The ultrasound frequency was 0.5 to 1 MHz and the ultrasound power was 0.1 W/cm^2 to 1.5 W/cm^2. Ultrasound treatment is delayed after injection to permit absorbance of the sonodynamic compound into the tumor or other hyperproliferative tissue. In the case of Photofrin™ the delay is extensive, e.g. 20 to 30 hours. […] Due to differential absorption times into tumor, patient was intravenously injected with Photofrin™ 24 hours before ultrasound treatment and DVDMS was intravenously injected two hours prior to ultrasound treatment. Treatment occurred each time for 20-30 minutes and total time to treat three times was 72 hours.

[2] = Spectral characteristics (absorption and fluorescence emission spectra); format: physicochemical
Experimental: (§1) Two kinds of leukemia cells (K562, U937) as main tumor cell models and cells (peripheral blood mononuclear cells, spleen lymphocytes) separated from healthy ICR mice as normal cell models were used. The multivolume spectrophotometer system and fluorescence spectrophotometer were used to determine the spectral characteristics of DVDMS. The uptake of DVDMS by tumor cells and normal cells was measured by flow cytometry. The MTT assay was used to examine the cytotoxicity and sonotoxicity of DVDMS.

[3] = test system: tumor cells (K562, U937) and normal cells; assay: Cellular uptake by flow cytometry in tumor cells and normal cells; format: cell-based; conditions: tumor cells compared with normal healthy cells
Experimental: as §1

ECA-109 cells = assay: Sonodynamic therapy in ECA-109 cells; format: cell-based
Source text: Abundant intracellular reactive oxygen species (ROS) was found in the SDT groups, and the cytotoxicity induced by SDT was effectively remitted by ROS scavengers. […] Release of cytochrome C, an increased rate of apoptosis, and activated apoptosis protein were detected in the SDT group. In addition, relatively severe cell damage was observed on scanning electron microscopy after treatment with DVDMS and SDT.

[4] = test system: leukemia cells (K562, U937); assay: MTT assay of cytotoxicity and sonotoxicity in leukemia cells; format: cell-based
Experimental: as §1

4T1 mammary cancer = assay: Photodynamic therapy in 4T1 mammary cancer-bearing mice; format: in vivo; conditions: for tumor volume inhibition ratio: 17th day
Experimental: At the beginning, we have pointed out that DVDMS is an active component isolated from Photofrin™ II. So it would be very interesting to compare the in vivo anti-cancer efficacy of DVDMS-PDT with PHOTOFRIN™-PDT (PF-PDT).
Representative mice were photographed at 6, 12, or 18 days after the corresponding treatments. […] However, tumor size decreased in a dose-dependent manner with increasing DVDMS and light exposure.
The tumor volume and tumor weight results were evaluated for each group.
On the 19th day, the tumors were photographed and the average tumor weight in each group was calculated.

skin = assay: Dermatological phototoxicity and skin retention after treatment; design: species or system patient; conditions: in vivo
sarcoma 180 solid tumors = assay: Sonodynamic antitumor effect in mice bearing sarcoma 180 solid tumors; format: in vivo
Experimental: In order to determine the optimum timing of ultrasound exposure after administration of DVDMS, a three-dimensional optical imaging system (IVIS spectrum) was used to observe the biodistribution of DVDMS in S180 tumor. The antitumor effects were estimated by the tumor inhibition ratio (volume and weight) after sonodynamic therapy. […] A significant synergistic effect of ultrasound combined with DVDMS was obtained when the load power indicated 4 W and DVDMS dose was above 2 mg/kg. […] Conclusions: DVDMS is a potential sensitizer for sonodynamic cancer therapy. The antitumor effect of ultrasound could be enhanced in the presence of DVDMS, which might be involved in a sonochemical mechanism.

[5] = test system: peripheral blood mononuclear cells, spleen lymphocytes; assay: MTT assay of cytotoxicity in normal cells; format: cell-based, ICR mice
Experimental: as §1

With C=Cc1c(C)c2cc3nc(cc4[nH]c(cc5nc(cc1[nH]2)C(C)=C5C(C)OC(C)C1=C(C)c2cc5[nH]c(cc6nc(cc7[nH]c(cc1n2)c(C)c7CCC(=O)[O-])C(CCC(=O)[O-])=C6C)c(C)c5C=C)c(C)c4CCC(=O)[O-])C(CCC(=O)[O-])=C3C.[Na+].[Na+].[Na+].[Na+] (stereo not shown) [DVDMS] as the molecule, how does the autofluorescence intensity [1] read?
The autofluorescence intensity was “significantly higher”.

What about the “singlet oxygen production efficiency” value [1] of the same molecule?
Its value is “significantly higher”.

What about the “time to what appears to be complete remission” value (brain stem tumor; SDT, 0.2 mg/kg) of the same molecule?
Its value is no more than 30 days.

And the “absorbance into the tumor after injection” value (brain stem tumor; compared with Photofrin)?
The value was “absorbance is much quicker”.

What about the “efficacy in sonic treatment relative to Photofrin II” value (brain stem tumor; injected into a host) of the same molecule?
Its value is “about ten times higher”.

What about the “cranial MRI on review after SDT treatment” value (brain stem tumor; patient, 0.2 mg/kg) of the same molecule?
The value was “tumor was absorbed, brain stem edema was significantly reduced”.

What about the “head MRI 30 days after treatment” value (brain stem tumor; patient, 0.2 mg/kg) of the same molecule?
Its value is “ventral brain stem tumor has disappeared”.

What about the “absorption spectra, maximum peak” value [2] of the same molecule?
Its value is 359 nm.

What about the fluorescence emission [2] of the same molecule?
The fluorescence emission was 642 nm.

And the “cellular uptake and accumulation” value [3]?
The value was “quick cellular uptake and selective accumulation in tumor cells”.

What about the subcellular location (ECA-109 cells) of the same molecule?
The subcellular location was “mainly to the mitochondria”.

What about the SDT cytotoxicity (ECA-109 cells; compared with hematoporphyrin) of the same molecule?
The SDT cytotoxicity was “more cytotoxic”.

And the “sonotoxicity: cell-damaging effect of ultrasound in the presence of DVDMS” value ([4]; MTT, under appropriate conditions)?
The value was “significantly enhanced”.

And the “cytotoxicity by the MTT method” value ([4]; without ultrasound)?
Its value is “dose dependent”.

What about the “tumor size versus PF group” value (4T1 mammary cancer; 2 mg/kg DVDMS vs 10 mg/kg PF, same light exposure 100 J/cm^2) of the same molecule?
The value was “less than in the 10 mg/kg PF group”.

And the “tumor volume inhibition ratio” value (4T1 mammary cancer; 1 mg/kg DVDMS+50 J/cm^2, vs control)?
The value was 38.51%.

What about the “tumor volume inhibition ratio” value (4T1 mammary cancer; 2 mg/kg DVDMS alone, vs control) of the same molecule?
The value was 7.42%.

What about the “tumor volume inhibition ratio” value (4T1 mammary cancer; 2 mg/kg DVDMS+50 J/cm^2, vs control) of the same molecule?
The value was 59.23%.

And the “tumor volume inhibition ratio” value (4T1 mammary cancer; 2 mg/kg DVDMS+100 J/cm^2, vs control)?
Its value is 66.97%.

And the “tumor volume inhibition ratio” value (4T1 mammary cancer; 2 mg/kg DVDMS+150 J/cm^2, vs control)?
Its value is 78.12%.

What about the “tumor volume inhibition ratio” value (4T1 mammary cancer; group (2) mg/kg DVDMS+50 J/cm^2 (dose not given), vs control) of the same molecule?
Its value is 18.61%.

And the “survival of tumor-bearing mice” value (4T1 mammary cancer; DVDMS-PDT compared to control and DVDMS-only groups (p<0.01))?
Its value is “significantly prolonged”.

And the “survival of tumor-bearing mice versus PF-PDT” value (4T1 mammary cancer; DVDMS-PDT vs PF-PDT (p<0.05))?
Its value is “more effective than PF-PDT”.

What about the “tumor volume and tumor weight” value (4T1 mammary cancer; nineteen days after treatment, DVDMS plus light exposure vs control or DVDMS alone) of the same molecule?
The value was “significantly lower”.

What about the dermatological phototoxicity (skin) of the same molecule?
The dermatological phototoxicity was “lacking dermatological phototoxicity”.

What about the “tumor weight inhibition ratio” value (sarcoma 180 solid tumors; DVDMS alone, no ultrasound) of the same molecule?
The value was 23.15%.

And the “biodistribution (IVIS spectrum optical imaging)” value (sarcoma 180 solid tumors; S180 tumor-bearing mice)?
Its value is “preferential localization in tumors, but a low accumulation in most normal tissues”.

What about the metastasis (sarcoma 180 solid tumors; SDT-treated mice compared with the control group) of the same molecule?
Its metastasis is “no metastasis occurred”.

What about the “tumor volume inhibition ratio” value (sarcoma 180 solid tumors; day 14 after DVDMS-SDT) of the same molecule?
Its value is 56.27%.

And the “tumor weight inhibition ratio” value (sarcoma 180 solid tumors; synergistic treatment (ultrasound combined with DVDMS))?
The value was 55.37%.

What about the “cytotoxicity to normal cells” value [5] of the same molecule?
The value was “little cytotoxicity”.
